Test results as given in patent US20060293294A1, “Method for treatment or prevention of androgen deficiency” (HORMOS MEDICAL CORPORATION, priority 2004, published 2006).

Tested on: healthy, elderly men
Assay: Phase I repeated dose study 101-50202: serum hormone concentrations before and during 28-day treatment
Type: in vivo, human
Details: for increase in the mean total testosterone compared to the baseline concentration: 300 mg dose
Text: Fispemifene has been studied in two phase I studies in humans—in a single dose and a repeated dose study. Effect of fispemifene on hormone levels was one main focus of the repeated dose study. The phase I repeated dose study (number 101-50202) was a randomized, double-blind, placebo-controlled 28-day dose-escalation study performed in 32 healthy, elderly men, aged 50-68 years. The main objective of the study was to investigate the tolerability, safety and pharmacokinetics of fispemifene after repeated oral doses, but the study focused also on the effects of fispemifene on serum testosterone, estradiol, and other relevant hormones. The fispemifene doses 10, 30, 100 and 300 mg per day and placebo were administered once every morning as capsules containing 10 mg or 100 mg of fispemifene, or placebo. The dose was escalated to the next higher dose level, if the previous dose had been safe and well tolerated evaluated by the laboratory safety determinations and ultrasound of mammagy glands.
The variables for safety and tolerability were adverse events, vital signs, 12-lead ECG, clinical laboratory evaluations, physical examination, ultrasound examinations (mammary glands) and inhibin b. For pharmacokinetics, the concentrations of fispemifene and its metabolite(s) were to be evaluated. For pharmacodynamics, serum concentrations of FSH, LH, estradiol, testosterone, SHBG, prolactin, aldosterone, cortisol and TSH before and during treatment were measured and compared with the concentrations in the placebo-group.

With OCCOCCOc1ccc(/C(=C(/CCCl)c2ccccc2)c2ccccc2)cc1 [Fispemifene, (Z)-2-{2-[4-(4-Chloro-1,2-diphenylbut-1-enyl)phenoxy]ethoxy}ethanol] the “Serum total testosterone concentration, Mean” value (10 mg per day oral, Baseline) was 19.33 nmol/L, the “Serum total testosterone concentration, Mean” value (10 mg per day oral, Day 8) was 19.83 nmol/L and the “Serum total testosterone concentration, Mean” value (10 mg per day oral, Day 15) was 20.50 nmol/L. For the same compound, the “Serum total testosterone concentration, Mean” value (10 mg per day oral, Day 22) was 22.00 nmol/L, the “Serum total testosterone concentration, Mean” value (10 mg per day oral, Day 28) was 17.40 nmol/L and the “Serum total testosterone concentration, Mean” value (30 mg per day oral, Baseline) was 15.00 nmol/L. For the same compound, the “Serum total testosterone concentration, Mean” value (30 mg per day oral, Day 8) was 14.40 nmol/L, the “Serum total testosterone concentration, Mean” value (30 mg per day oral, Day 15) was 15.00 nmol/L and the “Serum total testosterone concentration, Mean” value (30 mg per day oral, Day 22) was 15.80 nmol/L. The “Serum total testosterone concentration, Mean” value (30 mg per day oral, Day 28) was 14.80 nmol/L, the “increase of the mean total testosterone” value (100 mg dose, 28 days of treatment) was “about 32%” and the “subjects in whom an increase in testosterone serum concentration was seen” value (100 mg or 300 mg, 28-day treatment) was “all the subjects”. For the same compound, the “Serum total testosterone concentration, Mean” value (100 mg per day oral, Baseline) was 14.27 nmol/L, the “Serum total testosterone concentration, Mean” value (100 mg per day oral, Day 8) was 18.67 nmol/L and the “Serum total testosterone concentration, Mean” value (100 mg per day oral, Day 15) was 19.00 nmol/L. The “Serum total testosterone concentration, Mean” value (100 mg per day oral, Day 22) was 17.83 nmol/L, the “Serum total testosterone concentration, Mean” value (100 mg per day oral, Day 28) was 18.83 nmol/L and the “increase in the mean total testosterone compared to the baseline concentration” value (28 days of treatment) was 75%. For the same compound, the “increase in the mean total testosterone compared to the baseline concentration” value (28 days of treatment, listed as fispemifene) was “about 75%”, the “Serum total testosterone concentration, Mean” value (300 mg per day oral, Baseline) was 15.67 nmol/L and the “Serum total testosterone concentration, Mean” value (300 mg per day oral, Day 8) was 23.17 nmol/L. The “Serum total testosterone concentration, Mean” value (300 mg per day oral, Day 15) was 27.00 nmol/L, the “Serum total testosterone concentration, Mean” value (300 mg per day oral, Day 22) was 27.83 nmol/L and the “Serum total testosterone concentration, Mean” value (300 mg per day oral, Day 28) was 27.50 nmol/L. The “serum concentrations of testosterone, FSH, LH, and SHBG” value (during the 28 days of treatment) was “increased”, the “men with serum testosterone level above the upper limit of normal range (33 nmol/L) during treatment” value (highest dose (300 mg), six men) was “Two out of six men” and the “change in the serum testosterone concentration” value (within 28 days from the start of the treatment) was “clinically and statistically significant and dose dependent increase”.
